{"source": "patent US20220151993A1", "about": "“TREATMENT OF ANXIETY AND DEPRESSION” (NEW YORK UNIVERSITY, priority 2020, published 2022)", "format_in_all_cases": "in vivo, human", "key": {"[1]": {"tested_on": "patients with cancer-related psychiatric and existential distress", "test": "Secondary questionnaire domains (social relationships, environmental, physical, psychological health), long-term follow-up", "settings": "single 0.3 mg/kg dose with psychotherapy; for Psychological health: baseline 13.58; for Social relationships: baseline 13.91; for Physical health: baseline 15.00; for Environmental health: baseline 15.50", "protocol": "(§1) The present example assesses the long-term effects of a single dose of psilocybin (0.3 mg/kg) in conjunction with psychotherapy in patients with cancer-related psychiatric and existential distress.\n(§2) 29 participants were randomly assigned to one of two groups: psilocybin (0.3 mg/kg) on the first medication session followed by niacin (250 mg) on the second session (i.e. psilocybin-first group), or niacin (250 mg) on the first medication session followed by psilocybin (0.3 mg/kg) on the second session (i.e. niacin-first group). Psilocybin and niacin were administered in identically appearing gelatin capsules.\n(§3) Participants received three 2-hour preparatory psychotherapy sessions in order to review the purpose and intention of participation in the study, treatment goals, and structure of the treatment sessions. Medications were administered in 8-hour treatment sessions which included a discussion of the participant's subjective experience with the treatment team to consolidate the memory of the experience and to begin the process of post-integrative psychotherapy. Participants also received three 2-hour post-medication integration sessions (repeated after the second dosing session) to further consolidate the memory of the experience and to continue the process of psychological integration. All psychotherapy treatment sessions were delivered by a dyadic therapy team trained in a blend of psychotherapies with an evidence base to support their use in cancer patients (drawing upon principles of palliative care therapy, existential psychotherapy, cognitive-behavioural therapy, psychoanalysis therapy, and transpersonal psychology) and were taught about the safety and clinical pharmacology of psilocybin. Each therapy dyad underwent six confidential one-to-one sessions to build their alliance and exchange ideas about psychedelic therapy. The trial employed a crossover design at seven weeks following the first drug administration, with an outcome assessment at 6.5 months (26 weeks) following the second drug administration (i.e. after the crossover).\n(§4) Two long-term follow ups (LTFUs) were carried out to assess the continued effect of psilocybin. Of the original 29 participants, all 16 participants who were not deceased at the time of LTFU were contacted (the remaining 13 participants were deceased). Of the 16 participants who were contacted, 15 agreed to participate in the LTFU and completed measures through a secure online portal. One participant died (from cancer-related complications) after completing the first LTFU and prior to the second LTFU, leaving us with 14 participants at the second LTFU. The first and second LTFUs occurred on average 3.2 years (range 2.3-4.5 years) and 4.5 years (range 3.5-5.5 years) following the participants' psilocybin dosing date, respectively.\n(§5) Regarding all analyses for both the primary and secondary outcome assessments, both the psilocybin-first and niacin-first dose sequence groups were collapsed and combined into one group. Reasons for this decision included the crossover design, which prevented valid between-group comparisons subsequent to the crossover, and a need to increase power given the modest sample size.\nThe long-terms effects of psilocybin on variables of interest were evaluated using four repeated measures regressions, estimated within the mixed effect repeated measurement (MMRM) model. Planned within-subject t-tests (Tukey's post-hoc) were conducted comparing scores at baseline to the following time points for primary and secondary outcomes: 6.5 months after the second medication session, and the first and second LTFU points. Planned within subject t-tests were also conducted comparing scores at parent study endpoint (6.5 months) to the two LTFU points."}, "[2]": {"tested_on": "patients with cancer-related psychiatric and existential distress", "test": "Functional Assessment of Chronic Illness Therapy-Spiritual Well-Being (FACIT-Sp-12), long-term follow-up", "settings": "for Faith / Meaning/peace / Spiritual well-being: single 0.3 mg/kg dose with psychotherapy; for Faith: baseline 6.75; for Meaning/peace: baseline 19.43; for Spiritual well-being: baseline 55.69", "protocol": "as §1, §2, §3, §4\nSpirituality was assessed using the Functional Assessment of Chronic Illness Therapy-Spiritual Well-Being (FACIT-Sp-12; Bredle et al., 2011). This is a 12-item measure of spiritual well-being among individuals with cancer and other forms of chronic illness. Items are rated on a five-point Likert scale. The measure yields three subscales: a sense of meaning/peace in life, a sense of comfort from one's faith, and total spiritual well-being score. Total scores for each subscale range from 0-32, 0-16, and 0-48, respectively. Data have not been published regarding recommended cutoff scores for this measure. This measure has shown good reliability (Cronbach's a ranging from 0.81-0.88) and has been well validated (Bredle et al. 2011).\nas §5, with “size. […]” for “size.”"}, "[3]": {"tested_on": "patients with cancer-related psychiatric and existential distress", "test": "Death Anxiety Scale (DAS), long-term follow-up", "settings": "single 0.3 mg/kg dose with psychotherapy, baseline 8.06", "protocol": "as §1, §2\nas §3, with “Each therapy dyad underwent six confidential one-to-one sessions to build their alliance and exchange ideas about psychedelic therapy. The trial employed a crossover design at seven weeks following the first drug administration, with an outcome assessment at 6.5 months (26 weeks) following the second drug administration (i.e. after the crossover).” left out\nCancer-related existential distress (demoralization, hopelessness, attitudes and effects associated with disease progression and death) was assessed using the following methods: • The Death Anxiety Scale (DAS) (Templer, 1970)—a 15-item measure that has been used most frequently to assess death anxiety. Items are scored “true” and “false” and then scored as one and zero, respectively. […]"}, "[4]": {"tested_on": "patients with cancer-related psychiatric and existential distress", "test": "Existential distress measures (hopelessness, demoralization, death anxiety) combined: effect sizes", "protocol": "as §1, §2, §3, §4\nCancer-related existential distress (demoralization, hopelessness, attitudes and effects associated with disease progression and death) was assessed using the following methods: • The Death Anxiety Scale (DAS) (Templer, 1970)—a 15-item measure that has been used most frequently to assess death anxiety. Items are scored “true” and “false” and then scored as one and zero, respectively. Total scores range between 0-15. Higher scores represent increased severity of death anxiety. Scores below eight are considered normative levels of death anxiety. Templer (1970) reported adequate test-retest reliability (r=0.83) and validity. • The Hopelessness Assessment in Illness (HAI) (Rosenfeld et al., 2011)—an eight-item instrument developed for use in patients with advanced cancer. Total scores range from 0-16. Higher scores indicate higher levels of hopelessness. Data have not been published regarding recommended clinical cut-off scores for this measure. […]"}, "[5]": {"settings": "mean score at 3.2 years, p < 0.01 vs baseline"}, "[6]": {"settings": "mean score at 3.2 years, p < 0.05 vs baseline"}, "[7]": {"settings": "mean score at 4.5 years, p < 0.05 vs baseline"}, "[8]": {"settings": "mean score at 6.5-8 months, p < 0.001 vs baseline"}, "[9]": {"settings": "mean score at 6.5-8 months, p < 0.05 vs baseline"}, "[10]": {"settings": "mean score at 6.5-8 months, p < 0.01 vs baseline"}}}
{"smiles": "CN(C)CCc1c[nH]c2cccc(OP(=O)(O)O)c12", "note": "[psilocybin, [3-(2-dimethylaminoethyl)-1H-indol-4-yl] dihydrogen phosphate]", "values": [{"measurement": "Psychological health", "setting": "[1]; [5]", "result": 15.48}, {"measurement": "Social relationships", "setting": "[1]; mean score at 3.2 years", "result": 15.54}, {"measurement": "Physical health", "setting": "[1]; mean score at 3.2 years", "result": 16.33}, {"measurement": "Environmental health", "setting": "[1]; [6]", "result": 16.72}, {"measurement": "Psychological health", "setting": "[1]; mean score at 4.5 years", "result": 14.80}, {"measurement": "Social relationships", "setting": "[1]; mean score at 4.5 years", "result": 14.67}, {"measurement": "Physical health", "setting": "[1]; mean score at 4.5 years", "result": 13.89}, {"measurement": "Environmental health", "setting": "[1]; [7]", "result": 17.00}, {"measurement": "Psychological health", "setting": "[1]; [8]", "result": 15.70}, {"measurement": "Social relationships", "setting": "[1]; mean score at 6.5-8 months", "result": 15.27}, {"measurement": "Physical health", "setting": "[1]; [9]", "result": 16.35}, {"measurement": "Environmental health", "setting": "[1]; [9]", "result": 16.54}, {"measurement": "Faith", "setting": "[2]; [6]", "result": 9.31}, {"measurement": "Meaning/peace", "setting": "[2]; mean score at 3.2 years", "result": 19.27}, {"measurement": "Spiritual well-being", "setting": "[2]; mean score at 3.2 years", "result": 59.85}, {"measurement": "Faith", "setting": "[2]; mean score at 4.5 years, p < 0.01 vs baseline", "result": 10.43}, {"measurement": "Meaning/peace", "setting": "[2]; mean score at 4.5 years", "result": 20.20}, {"measurement": "Spiritual well-being", "setting": "[2]; [7]", "result": 65.04}, {"measurement": "Faith", "setting": "[2]; [10]", "result": 9.77}, {"measurement": "Meaning/peace", "setting": "[2]; [8]", "result": 26.34}, {"measurement": "Spiritual well-being", "setting": "[2]; [8]", "result": 70.58}, {"measurement": "spiritual well-being and faith domains (FACIT-Sp-12) relative to baseline", "setting": "[2]; second LTFU", "result": "significant improvements"}, {"measurement": "Death anxiety", "setting": "[3]; [5]", "result": 5.68}, {"measurement": "Death anxiety", "setting": "[3]; [7]", "result": 5.75}, {"measurement": "Death anxiety", "setting": "[3]; [10]", "result": 6.09}, {"measurement": "mean Cohen's d, reductions in hopelessness, demoralization and death anxiety since baseline", "setting": "[4]; 6.5-month point", "result": 1.39}, {"measurement": "range of Cohen's d, hopelessness, demoralization and death anxiety", "setting": "[4]; 6.5-month point", "result": "0.88-2.00"}, {"measurement": "mean Cohen's d, reductions in hopelessness, demoralization and death anxiety since baseline", "setting": "[4]; first LTFU (mean 3.2 years)", "result": 1.39}, {"measurement": "range of Cohen's d, hopelessness, demoralization and death anxiety", "setting": "[4]; first LTFU (mean 3.2 years)", "result": "0.80-1.77"}, {"measurement": "mean Cohen's d, reductions in hopelessness, demoralization and death anxiety since baseline", "setting": "[4]; second LTFU (mean 4.5 years)", "result": 1.60}, {"measurement": "range of Cohen's d, hopelessness, demoralization and death anxiety", "setting": "[4]; second LTFU (mean 4.5 years)", "result": "1.00-2.00"}]}
